Results reported in patent US7632859B2, “Iontophoretic delivery of rotigotine for the treatment of Parkinson's disease” (Schwarz Pharma AG, priority 2002, dated 2009).
Each block holds one compound with its values, some of them ahead of it.

Key:
[1] = In vitro iontophoretic flux of rotigotine, three-chamber flow-through diffusion cells; assay type: in vitro ADME, human; details: donor pH 5, 500 μA/cm^2, 20° C.
Experimental: In vitro iontophoretic studies for the administration of rotigotine were carried out with three-chamber flow-through diffusion cells as described by […] al. ([…]. Boddé, “Validation and testing of a new iontophoretic continuous flow through transport cell”, J. Control. Release (1998), 51, […]). On both sides of the acceptor compartment human stratum corneum (SC) was situated. A dialysis membrane having a 5.000 Da cut-off was used as supporting membrane. The volume of the outer chambers was approximately 2 ml, while the volume of the acceptor compartment was 0.54 ml. The two outer chambers contained the silver plate (anode) or silver/silver chloride (cathode) driver […]. The donor phase consisted of rotigotine solution buffered with 5 mM citrate buffer (2.1 mM sodium citrate dihydrate and 2.9 mM citric acid). Using this set-up, a pH in the donor chamber of 5, a current density of 500 μA/cm^2, a pH in the acceptor chamber of 7.4, a temperature of 20° C. and an NaCl concentration in the donor chamber of 70 mmol/l, the flux of rotigotine was measured for different drug concentrations in the donor phase. Using a similar procedure as in Example 1 and a concentration of rotigotine of 1.4 mg/ml (3.98 mM), a pH in the donor chamber of 5, a current density of 500 μA/cm^2, a pH in the acceptor chamber of 7.4 and a temperature of 20° C., but substituting triethylammonium chloride (TEACl) or tributylammonium chloride (TBACl) for NaCl, the influence of the different cations on the flux was evaluated. The concentration of the chloride salts in the donor solution was 70 mmol/l. Using a similar procedure and the same parameters as in Example 2, the influence of reducing the pH in the acceptor chamber from 7.4 to 6.2 was evaluated for different chloride salts. The concentration of the chloride salts in the donor solution was 70 mmol/l.

[2] = Solubility of rotigotine in the donor phase; assay type: physicochemical
Text: To provide for an optimal flux across human stratum corneum it was also necessary to provide for a sufficient concentration of Cl^− ions for the electrode reaction in the donor phase.

[3] = relative to therapeutic concentration range of 1.4 to 10.7 ng/ml; cited from earlier work
[4] = relative to therapeutic range; cited from earlier work

- Flux Rotigotine ([1]; co-ions source NaCl 70 mmol/l, rotigotine 1.4 mg/ml (3.98 mM), acceptor pH 7.4): 53.2 nmol/cm^2/h
- Flux Rotigotine ([1]; co-ions source NaCl 70 mmol/l, rotigotine 1.4 mg/ml, acceptor pH 6.2): 58.9 nmol/cm^2/h
- Flux Rotigotine ([1]; co-ions source TBACl 70 mmol/l, rotigotine 1.4 mg/ml (3.98 mM), acceptor pH 7.4): 62.0 nmol/cm^2/h
- Flux Rotigotine ([1]; co-ions source TBACl 70 mmol/l, rotigotine 1.4 mg/ml, acceptor pH 6.2): 76.5 nmol/cm^2/h
- Flux Rotigotine ([1]; co-ions source TEACl 70 mmol/l, rotigotine 1.4 mg/ml (3.98 mM), acceptor pH 7.4): 72.8 nmol/cm^2/h
- Flux Rotigotine ([1]; co-ions source TEACl 70 mmol/l, rotigotine 1.4 mg/ml, acceptor pH 6.2): 43.2 nmol/cm^2/h
- Flux Rotigotine ([1]; rotigotine donor conc. 0.5 mg/ml (1.4 mM), NaCl 70 mmol/l, acceptor pH 7.4): 22.9 nmol/cm^2/h
- Flux Rotigotine ([1]; rotigotine donor conc. 1.0 mg/ml (2.8 mM), NaCl 70 mmol/l, acceptor pH 7.4): 30.2 nmol/cm^2/h
- Flux Rotigotine ([1]; rotigotine donor conc. 1.4 mg/ml (3.98 mM), NaCl 70 mmol/l, acceptor pH 7.4): 53.2 nmol/cm^2/h
- solubility of rotigotine ([2]; effect of addition of chloride salts): reduces the solubility
- solubility of rotigotine ([2]; effect of increasing pH): decreases when the pH is increased
SMILES: CCCN(CCc1cccs1)[C@H]1CCc2c(O)cccc2C1 [Rotigotine, (−)-5,6,7,8-tetrahydro-6-[propyl-[2-(2-thienyl)ethyl]-amino]-1-naphthalenol]

SMILES: CN1CCc2cccc3c2[C@H]1Cc1ccc(O)c(O)c1-3 [R-apomorphine, (R)-5,6,6a,7-tetrahydro-6-methyl-4H-dibenzoquinoline-11,12-diol]
- concentrations obtained by iontophoretic administration [3]: lower end of the therapeutic concentration range

SMILES: CCCN(CCC)CCc1cccc2c1CC(=O)N2 [ropinirole]
- fluxes obtained by iontophoretic administration [4]: lower end of the therapeutic range
